The values that follow come from US9169247B2, “Tetrahydro-beta-carboline derivatives, synthesis and use thereof” (Southern Research Institute, priority 2009, dated 2015).

The test system of one data set is HT-29. Briefly: Growth assay (Cell Titer Glo). It counts as cell-based, human. The conditions noted are these: Homo sapiens, HT-29, 72 h, HT-29 colon. Here is the method: (§1) Compounds 2a-h were tested for tumor cell growth inhibitory activity using the human breast MDA-MB-231 and ZR75-1 tumor cell lines and the colon CACO-2, SW-1116, and HT-29 tumor cell lines.
(§2) All human tumor cell lines were obtained from ATCC and grown under standard cell culture conditions at 37° C. in a humidified atmosphere with 5% CO2. Cells were grown in RPMI 1640 supplemented with 5% fetal bovine serum 2 mM glutamine, 100 units/ml penicillin, 100 units/ml streptomycin, and 0.25 μg/ml amphotericin. Cells were harvested at 70 to 90% confluence with trypsin/EDTA and used immediately Cell count and viability was determined by Trypan blue staining followed by hemocytometry. Only cultures displaying >95% cell viability were used for experiments. HMEC were grown according to the specifications from the supplier (Lonzo).
(§3) Tissue culture microtiter 96-well plates were seeded with cells at a density of 5,000 cells/well. The plates were incubated for 18-24 hours prior to any treatment. All test compounds were solubilized in 100% DMSO and diluted with media to obtain a final DMSO concentration of 0.1%. Cell viability was measured 72 hours after treatment by the Cell Titer Glo Assay (Promega), which is a luminescent assay that is an indicator of live cells as a function of metabolic activity and ATP content. The assay was performed according to manufacturer's specifications. Luminescence was measured by a Perkin Elmer Victor® multi-label plate reader.^6
(§4) Dose response curves were analyzed using Prism™ 4 software (GraphPad) to calculate IC50 values using a four parameter logistic equation.

In data set [1] the test system is human MDA-MB-231 breast tumor cells. Briefly: Growth assay (Cell Titer Glo). It counts as cell-based. Particulars: Homo sapiens, MDA-MB-231, 72 h, MDA-MB-231 breast; 72 h; Tables 3-5; read-out: IC50 value, μM, growth. Here is the method: as §2, §3, §4
A further data set has as its system SW1116. Briefly: Growth assay (Cell Titer Glo). The format is cell-based. Particulars: Homo sapiens, SW 1116; SW1116 colon; 72 h. As for the experimental part: as §1, §2, §3, §4
On the technique in general: In ATP-based viability assays light output follows the ATP content of the culture.

In a further data set the test system is CACO-2. Description: Growth assay (Cell Titer Glo). The conditions noted are these: Homo sapiens; CACO-2 colon; 72 h. It counts as cell-based. Here is the method:
as §1, §2, §3, §4

For the next data set, the system named is ZR75-1. Briefly: Growth assay (Cell Titer Glo). The format is cell-based. The conditions noted are these: Homo sapiens, ZR-75-1; ZR75-1 breast; 72 h. As for the experimental part: as §1, §2, §3, §4

Structures are written as SMILES. Where only a bound is given, the exact number is not on record here.

One may read the IC50 as the point on the concentration scale where inhibition reaches its midpoint. The term melting point denotes the temperature, or range, at which the solid turns liquid. Take `COC(=O)[C@H]1Cc2c([nH]c3ccccc23)[C@@H](c2cc(OC)ccc2OC)N1C(=O)CCl` [Compound 2e, Methyl (1R,3R)-1-(2,5-dimethoxyphenyl)-2-(2-chloroacetyl)-2,3,4,9-tetrahydro-1H-β-carboline-3-carboxylate]: the melting point lay in the range of 108 to 111 °C. The molecule further came in with a concentration for half-maximal inhibition (IC50) in the data set with HT-29 of 3.38 µM. Moreover, the IC50 in data set [1] stood at 4.25 µM. The same molecule came in with an IC50 with SW1116 of 7.2 µM. Further, the IC50 in the data set on CACO-2 was 3.5 µM. The molecule further came in with an IC50 with ZR75-1 of 5.7 µM.

Take `COC(=O)[C@H]1Cc2c([nH]c3ccccc23)[C@H](c2ccccc2Br)N1C(=O)CCl` [Compound 2b, Methyl (1S,3R)-1-(2-bromophenyl)-2-(2-chloroacetyl)-2,3,4,9-tetrahydro-1H-β-carboline-3-carboxylate]: the half-inhibitory concentration (IC50) in the data set on HT-29 amounted to 1.16 µM; in data set [1], 0.02 µM; in the data set with SW1116, 4.3 µM; in the data set on CACO-2, 1.6 µM; in the data set with ZR75-1, 1.1 µM.

For `COC(=O)[C@@H]1Cc2c([nH]c3ccccc23)[C@H](c2ccccc2Br)N1C(=O)CCl` [Compound 2c, Methyl (1S,3S)-1-(2-bromophenyl)-2-(2-chloroacetyl)-2,3,4,9-tetrahydro-1H-β-carboline-3-carboxylate], the IC50 with HT-29 is 0.77 µM; in data set [1], 0.02 µM; in the data set with SW1116 it was 2.72 µM; in the data set with CACO-2, 0.1 µM; in the data set on ZR75-1, 1.1 µM.

Consider `COC(=O)[C@@H]1Cc2c([nH]c3ccccc23)[C@@H](c2ccccc2Br)N1C(=O)CCl` [Compound 2d, Methyl (1R,3S)-1-(2-bromophenyl)-2-(2-chloroacetyl)-2,3,4,9-tetrahydro-1H-β-carboline-3-carboxylate], for which the IC50 was found to be 3.2 µM in the data set on HT-29; 0.25 µM in data set [1]; 1.05 µM in the data set with SW1116; 0.55 µM in the data set with CACO-2; 3.61 µM with ZR75-1.

For the molecule `COC(=O)[C@H]1Cc2c([nH]c3ccccc23)[C@@H](c2ccccc2Br)N1C(=O)CCl` [Compound 2a, Methyl (1R,3R)-1-(2-bromophenyl)-2-(2-chloroacetyl)-2,3,4,9-tetrahydro-1H-β-carboline-3-carboxylate], the IC50 came out at 1.9 µM with HT-29; 0.06 µM in data set [1]; 2.79 µM in the data set with SW1116; 0.79 µM in the data set with CACO-2; 3.52 µM in the data set on ZR75-1.

The molecule `COC(=O)C1Cc2c([nH]c3ccccc23)C(c2cc(OC)ccc2OC)N1C(=O)CCl` [Compound 2h, Methyl (1R,3S)-1-(2,5-dimethoxyphenyl)-2-(2-chloroacetyl)-2,3,4,9-tetrahydro-4H-β-carboline-3-carboxylate] showed a melting point of 228 to 230 °C. In the data set on HT-29, this molecule showed an IC50 of 5.59 µM. Also, the concentration for half-maximal inhibition (IC50) in data set [1] turned out to be 0.04 µM. In the data set with SW1116, this molecule showed an IC50 above 10 µM. Further, the IC50 in the data set on CACO-2 worked out at 0.29 µM. The molecule also displayed an IC50 in the data set on ZR75-1 of 3.95 µM.

In the case of `COC(=O)[C@@H]1Cc2c([nH]c3ccccc23)[C@H](c2cc(OC)ccc2OC)N1C(=O)CCl` [Compound 2g, Methyl (1S,3S)-1-(2,5-dimethoxyphenyl)-2-(2-chloroacetyl)-2,3,4,9-tetrahydro-1H-β-carboline-3-carboxylate], the melting point lay within 105 to 108 °C. The molecule also returned an IC50 in the data set on HT-29 of 6.12 µM. Moreover, the IC50 in data set [1] worked out at 1.6 µM. The IC50 in the data set with SW1116 is 3.71 µM. In the data set on CACO-2, this molecule yielded an IC50 of 3.04 µM. Besides, 4.13 µM corresponded to half-maximal inhibition in the data set with ZR75-1 (IC50).
